Patent US6127340A, “Serine protease inhibitors” (Trigen Limited, priority 1995, dated 2000)
Read-outs that look alike come from different tables or passages of the source.

What was measured:
[1] = biological target: human α-thrombin (Homo sapiens, UniProt P00734); experiment: Determination of Ki: inhibition of human α-thrombin catalysed hydrolysis of chromogenic substrate S-2238; assay type: biochemical
Method: The inhibition of human α-thrombin was determined by the inhibition of the enzyme catalysed hydrolysis of three different concentrations of the chromogenic substrate S-2238.
200 μl of sample or buffer and 50 μl of S-2238 were incubated at 37° C. for 1 min and 50 μl of human α-thrombin (0.25 NIH μ/ml) was added. The initial rate of inhibited and uninhibited reactions were recorded at […]. The increase in optical density was plotted according to the method of Lineweaver and Burke. The Km and apparent Km were determined and Ki was calculated using the relationship. [formula]
The buffer used contained 0.1M sodium phosphate, 0.2M NaCl, 0.5% PEG and 0.02% sodium azide, adjusted to pH 7.5 with orthophosphoric acid.
The samples consist of the compound dissolved in DMSO.
The reader is referred to Dixon, M and Webb, E. C., "Enzymes", third edition, 1979, Academic Press, the disclosure of which is incorporated herein by reference, for a further description of the measurement of Ki.

[2] = biological target: elastase; experiment: Inhibition constant (Ki) against elastase; assay type: biochemical
[3] = Table 4, 37° C., substrate S-2238
[4] = Table 5, Ki against elastase, 37° C., read-out: Ela
[5] = Table 6, comparative with prior art compounds, unit inferred, read-out: Ki(elastase)
[6] = Table 6, comparative with prior art compounds, unit inferred

Ki [1, 3] [nM]	Compound	further results
6200	CCOP(=O)(OCC)C(OC(=O)C1CCCN1C(=O)C(NC(=O)OCc1ccccc1)C(c1ccccc1)c1ccccc1)c1ccc([N+](=O)[O-])cc1 (racemic) [Example 239, Cbz-DL-Dpa-Pro-CO2 pNO2Phg^P (OEt)2]	–
16000	CCOP(=O)(OCC)C(OC(=O)[C@@H]1CCCN1C(=O)C(NC(=O)OCc1ccccc1)C(c1ccccc1)c1ccccc1)c1ccccc1 (mixture of isomers) [Example 264, Cbz-DL-Dpa-Pro.psi.(CO2)Phg^P (OEt)2]	–
18200	CC(C)C(OC(=O)C1CCCN1C(=O)C(NC(=O)OCc1ccccc1)C(c1ccccc1)c1ccccc1)B1OC2CC3CC(C3(C)C)C2(C)O1 [Example 87, Benzyloxycarbonyl-D,L-diphenylalanylprolyl-.psi.(CO2)-borovaline pinanediol ester]	Ki [2, 4]: 55000 nM
247	CCC(OC(=O)C1CCCN1C(=O)C(NC(=O)OCc1ccccc1)C(c1ccccc1)c1ccccc1)B1OC2CC3CC(C3(C)C)C2(C)O1 [Example 90, Cbz-D,L-Dpa-Pro-.psi.(CO2)-1-propyl-1-boronate pinanediol]	Ki [2, 4]: 4500 nM
39.2	CC1(C)C2CC3OB(C(Cc4ccccc4)OC(=O)C4CCCN4C(=O)[C@H](NC(=O)OCc4ccccc4)C(c4ccccc4)c4ccccc4)OC3(C)C1C2 (stereo partly drawn) [Example 91, Cbz-D-Dpa-Pro-.psi.(CO2)-boroPhe pinanediol]	–
88	CC1(C)C2CC3OB(C(OC(=O)C4CCCN4C(=O)[C@@H](Cc4ccccc4)NC(=O)OCc4ccccc4)c4ccccc4)OC3(C)C1C2 (stereo partly drawn) [Example 100, Cbz-D-Phe-Pro-.psi.(CO2)-boroPgl pinanediol]	–
131	CC1(C)C2CC3OB(C(OC(=O)C4CCCN4C(=O)C(NC(=O)OCc4ccccc4)C(c4ccccc4)c4ccccc4)c4ccccc4)OC3(C)C1C2 [Example 101, Cbz-D,L-Dpa-Pro-.psi.(CO2)-BoroPgl pinanediol]	–
–	CC(C)C(NC(=O)C1CCCN1C(=O)C(NC(=O)OCc1ccccc1)C(c1ccccc1)c1ccccc1)B1OC(C)(C)C(C)(C)O1 [Z-D-Dpa-Pro-BoroVal-OPin, reference compound]	Ki [2, 5]: > 70800 nM
39	Cbz-D,L-Dpa-Pro-(CO2)boroPhe-OPin [Example 89]	–
13700	Cbz-D-Dpa-Pro-.psi.(CO2)-GlyP(-)OPin [Example 177]	–
292	Cbz-D-Dpa-Pro-.psi.(COCH2)BoroHpg(-)OPin [Example 270]	–
148	Cbz-D-Phe-Pro-.psi.(CH2 O)-BoroPhe-OPin [Example 102]	–
129	Cbz-D-Phe-Pro-.psi.(CO2)-BoroPhe-OPin [Example 88]	–
269	Cbz-D-Phe-Pro-.psi.(CO2)-boroethylglycine pinanediol [Example 85]	Ki [2, 4]: 87 nM
435	Z-D,L-Dpa-(CO2)BoroMpgOPin [Example 109]	–
–	Z-D,L-Dpa-Pro-BoroPhe-OPin [reference compound]	Ki [1, 6]: 82 nM
283	Z-D-Dpa-Pro(CO2)-L-BoroMpgOPin [Example 116]	–
2390	Z-D-Dpa-Pro-(CH2 O)-L-BoroMpg-OPin [Example 173]	–
–	Z-D-Phe-ProBoroEtgOPin [reference compound]	Ki [1, 6]: 1000 nM; Ki [2, 5]: 561 nM
